This is an account of results in patent US11261200B2, “Heteroaryltrifluoroborate compounds for the treatment of mycobacterial infections” (The Global Alliance for TB Drug Development, Inc., priority 2016, dated 2022).

Values after ≈ are worked out from the molar mass of the structure shown. Read-outs that look alike come from different tables or passages of the source.

Experiment [1] has as its system M tb H37Rv. Put plainly: microbe, parasite or virus in culture. The class given is cell-based, Mycobacterium tuberculosis. Conditions: pH 5.2.
Experiment [2] has as its system M tb H37Rv. Put plainly: microbe, parasite or virus in culture. The experiment is classed as cell-based, Mycobacterium tuberculosis. Conditions: pH 6.7.
For a further experiment, the system named is Vero cells. Put plainly: Mammalian cell toxicity assay (CellTiter 96 Non-Radioactive Cell Proliferation Assay). To be noted: read-out: Vero cell IC50. The experiment is classed as cell-based.
In experiment [3] the test system is MtbH37Rv pncA-knock out strain. Put plainly: microbe, parasite or virus in culture. To be noted: pH 6.7. The class given is cell-based, Mycobacterium tuberculosis.
Experiment [4] concerns MtbH37Rv pncA-knock out strain. Put plainly: microbe, parasite or virus in culture. The experiment is classed as cell-based, Mycobacterium tuberculosis. Conditions: for MIC: pH 5.2.
A further experiment deals with Mtb H37Rv-PH-GFP. The experiment is classed as cell-based, Mycobacterium tuberculosis. To be noted: acidic medium (pH 5.2), FIG. 1-3.
In another experiment the test system is Mtb. To be noted: standard culture conditions; cited from earlier work.
Where [5] appears, read: Mycobacterium tuberculosis, H37RV, read-out: MIC 5.2 WT.
[6] abbreviates: Mycobacterium tuberculosis, H37RV, read-out: MIC 6.7 WT.
The mark [7] stands for this setting: Chlorocebus sabaeus, Table 1, Vero cells, 72 hours.
Where [8] appears, read: Mycobacterium tuberculosis, read-out: MIC 6.7 KO.
Setting [9] is: Mycobacterium tuberculosis, read-out: MIC 5.2 KO.
Setting [10] is: Chlorocebus sabaeus, Vero, 72 h.

For the compound `Fc1cncc([B-](F)(F)F)c1.[K+]` [Compound 4-2, [trifluoro-(5-fluoro-3-pyridyl)-boranyl] potassium(1+)], the MIC with M tb H37Rv [1] (read-out: MIC5.2WT) is 50 µM; in the experiment with M tb H37Rv [2] (read-out: MIC6.7WT) it was 200 µM; in experiment [3] (read-out: MIC6.7KO), 100 µM; in experiment [4] (read-out: MIC5.2KO) it was 25 µM. Also, in the experiment with Vero cells (Table 1, Vero cells, 72 hours), the IC50 was above 100 µM.
In the case of `F[B-](F)(F)c1cncc(C(F)(F)F)c1` [Compound 12-3, [trifluoro-[5-(trifluoromethyl)-3-pyridyl]-boranyl]potassium(1+)], the MIC is 100 µM in the experiment with M tb H37Rv [1] (setting [5]), above 200 µM in the experiment with M tb H37Rv [2] (setting [6]), above 200 µM in experiment [3] (setting [8]) and 100 µM in experiment [4] (setting [9]). In addition, the IC50 in the experiment with Vero cells (setting [7]) was above 100 µM.
For the compound `NNC(=O)c1ccncc1` [Isoniazid (INH), Isoniazid], the “change in internal pH of Mtb” value in the experiment on Mtb H37Rv-PH-GFP is recorded as “does not have any effect on internal pH”.
Consider `F[B-](F)(F)c1cncc(Cl)c1.[K+]` [Compound 5-2, [(5-chloro-3-pyridyl)-trifluoro-boranyl] potassium(1+)], for which the MIC came out at 50 µM with M tb H37Rv [1] (read-out: MIC5.2WT), 100 µM with M tb H37Rv [2] (read-out: MIC6.7WT), 100 µM in experiment [3] (read-out: MIC6.7KO) and 50 µM in experiment [4] (read-out: MIC5.2KO). In addition, the IC50 in the experiment with Vero cells (Table 1, Vero cells, 72 hours) was above 100 µM.
As to `N#Cc1cncc([B-](F)(F)F)c1` [Compound 11-2, potassium (5-cyanopyridin-3-yl)trifluoroborate], the MIC in the experiment with M tb H37Rv [1] (setting [5]) is 100 µM; with M tb H37Rv [2] (setting [6]), above 200 µM; in experiment [3] (setting [8]), above 200 µM; in experiment [4] (setting [9]) it was 100 µM. Besides, in the experiment on Vero cells (setting [10]), the IC50 was above 100 µM.
For the compound `NC(=O)c1cnccn1` [Pyrazinamide (PZA), Pyrazinamide, reference compound], the MIC with M tb H37Rv [1] (setting [5]) was 100 µM (≈ 12.3 µg/mL); with M tb H37Rv [1] (Mycobacterium tuberculosis, H37RV, read-out: MIC5.2WT), 100 µM (≈ 12.3 µg/mL); in the experiment with M tb H37Rv [1] (Mycobacterium tuberculosis, H37RV, read-out: MIC against Mtb at pH 5.2), 100 to 200 µM (≈ 12.3 to 24.6 µg/mL); in the experiment with M tb H37Rv [2] (setting [6]), above 400 µM; in the experiment on M tb H37Rv [2] (Mycobacterium tuberculosis, H37RV, read-out: MIC6.7WT), above 400 µM; in the experiment with M tb H37Rv [2] (Mycobacterium tuberculosis, H37RV, read-out: MIC at pH 6.7), above 400 µM. Also, the MIC was above 400 µM in experiment [3] (setting [8]); above 400 µM in experiment [3] (Mycobacterium tuberculosis, read-out: MIC6.7KO); above 400 µM in experiment [4] (setting [9]); above 400 µM in experiment [4] (Mycobacterium tuberculosis, read-out: MIC5.2KO). Further, the IC50 was above 100 µM with Vero cells (setting [7]) and above 100 µM in the experiment on Vero cells (Table 2, Vero cells, 72 hours). The “activity against pncA KO strain of Mtb” value in experiment [4] (result in words) is given as “not active against an Mtb strain whose pncA is knocked out”. In the experiment on Mtb, the “minimum inhibitory concentration against Mtb” value is above 200 µM. Moreover, the “change in internal pH of Mtb” value in the experiment on Mtb H37Rv-PH-GFP was “lowering internal pH of Mtb”.
In the case of `FB(F)c1cncc(N2CCCC2)n1` [Compound 7-5, potassium; difluoro-(6-pyrrolidin-1-ylpyrazin-2-yl)borane; fluoride], the MIC was 100 µM in the experiment on M tb H37Rv [1] (setting [5]), above 200 µM with M tb H37Rv [2] (setting [6]), above 200 µM in experiment [3] (setting [8]) and 50 µM in experiment [4] (setting [9]). Also, in the experiment on Vero cells (setting [10]), the half-inhibitory concentration (IC50) was above 100 µM.
Consider `COc1cncc([B-](F)(F)F)n1.[K+]` [Compound 2-5, [trifluoro-(6-methoxypyrazin-2-yl)-boranyl]potassium(1+)], for which the MIC in the experiment on M tb H37Rv [1] (read-out: MIC5.2WT) is given as 50 µM; in the experiment with M tb H37Rv [2] (read-out: MIC6.7WT), above 200 µM; in experiment [3] (read-out: MIC6.7KO), above 200 µM; in experiment [4] (read-out: MIC5.2KO), 25 µM. Further, in the experiment on Vero cells (Table 1, Vero cells, 72 hours), the IC50 was above 100 µM.

For orientation: IC50 means the concentration needed to halve the response being measured.
